The subject of assay [1] is memory loss of LACA mice induced by ethanol. In words: Water maze experiment, prevention of memory loss induced by ethanol. It counts as in vivo. The note with it: 400 mg/kg, one-week orally. As for the experimental part: The effect of the preparation of the present invention on the prevention of memory loss by the LACA mice was studied by the water maze experiment. The mice were orally administered with the drugs. One hour after such an oral administration, they were provided with 30% ethanol 0.1 ml/10 g BW. In 30 minutes, the water maze experiment was started.

In assay [2] the test system is learning memory of LACA mice. The experiment in a line: Water maze experiment, effect on learning memory of mice (d value analysis of response time). It counts as in vivo. The note with it: 400 mg/kg orally vs control group; second time test; n = 27. The source says:
The medicinal preparation of the present invention was used in a water maze experiment to study its effect on the learning memory of LACA mice. The Piracetam Tablets was used as a positive comparative drug for testing 6 days per week. The test lasted for 27 days. According to the data listed in the Table 2, it is readily apparent that the preparation of the present invention has a meaningful effect on the learning memory of the mice, as exemplified by the difference in the response time between the control group and the doped groups, which were respectively doped with 50 mg/kg of the preparation containing phenylethanoid glycosides, 200 mg/kg of the preparation containing phenylethanoid glycosides, and 400 mg/kg of the preparation containing phenylethanoid glycosides.

The subject of assay [3] is blood platelets aggregation of rats. In words: ADP-caused aggregation of blood platelets of rats after oral administration. It counts as in vivo, male SD rats. Conditions: 100 mg/kg orally for 7 days. Here is the method:
A study was done on the effect of the preparation of the present invention on aggregation of blood platelets of the rats.
The aggregation of blood platelets was caused by using adenosine disodium diphosphate (ADP). 1 mg/ml ADP solution was kept refrigerated before use. When the ADP solution was about to be used, it was diluted three times with the phosphoric acid buffer solution.
The male SD rats were randomly divided into five groups in accordance with the body weight. These five groups were the distilled water comparative group, the aspirin group, the 200 mg/kg preparation group, the 100 mg/kg preparation group, and the 50 mg/kg preparation group. The drugs were orally administered, with the administration volume being […]. The rats of the distilled water comparative group were given distilled water in same quantity. The administration continued for 7 days. The rats were not fed for 12 hours prior to the final administration. One hour after the final administration the blood was drawn out from the main artery. The blood so draw out was prevented from aggregation by 3.8% sodium citrate (1:9). […] The aggregation degree was determined by using a SPA-4 multifunctional blood platelet aggregation meter. The inhibition rate of the blood platelet aggregation is calculated by the following formula. […]

Assay [4] concerns thrombosis of the vein bypass of rats. In words: Thrombosis of the vein bypass of rats. The note with it: 100 mg/kg orally. It counts as in vivo, male SD rats. The source says:
A study was done on the effect of the preparation of the present invention on thrombosis of the vein bypass of the rats. The male SD rats were studied as compared with the aspirin. Thrombosis inhibition rate (%)=(distilled water comparative group thrombosis weight−drug group thrombosis weight)/distilled water comparative group thrombosis weight×100%.

As for `NC(=O)CN1CCCC1=O` [Piracetam], in assay [1], the “Arrival at destination after being trained, Error number” value is 0/0; the “Arrival at destination after being trained, Time” value was 8.00 ± 0.46 s; the “Arrival at destination after being trained, error number of animal” value is given as 0/0. In assay [1] (30% ethanol 0.1 ml/10 g BW), the “Arrival at destination after being given alcohol, Error number” value is recorded as 54; the “Arrival at destination after being given alcohol, Error rate” value is given as 9.00 times/number of animal; the “Arrival at destination after being given alcohol, Group error rate” value is 5.40 times/number of animal; the “Arrival at destination after being given alcohol, error number of animal” value is 6. In assay [2], the “d value ≧0.5, %” value is on record as 18.5%; the “d value ≧0.5, day” value was found to be 5 days; the “d value ≧0.5 sum, %” value is on record as 25.5%; the “d value ≧0.5 sum, day (period when the response time shows meaningful difference)” value was found to be 7 days. In assay [2], the “d value ≧0.8, %” value was 7.4% and the “d value ≧0.8, day” value is 2 days.
`CC(=O)Oc1ccccc1C(=O)O` [aspirin] had an aggregation inhibition in assay [3] (vs distilled water group) of 40.30%. The compound also had a maximum aggregation in assay [3] (±SD) of 32.73 ± 11.14 %. This compound registered a thrombosis inhibition rate in assay [4] (vs distilled water comparative group) of 34.97%. In assay [4] (x ± SD), the thrombosis weight is reported as 29.2 ± 4.00 mg.

The record behind these values is patent publication US7087252B2, “Medicinal preparation containing phenylethanoid glycosides extracted from herbaceous plant, Cistanche tubulosa (Schrenk.) Wight, process of making the same, and uses of the same” (Sinphar Pharmaceutical Co., Ltd., priority 2003, dated 2006).
